The test system of one data set is HBV in 2.2.15 cells. Kind of data set: 2.2.15 cells: viral product in cell lysates quantified via quantitative real time PCR. The data set is classed as cell-based, hepatitis B virus (HBV). The settings on record: Hepatitis B virus, 120 h, day 5 post treatment, 50% reduction of viral product vs no drug controls, readout (qPCR, HBsAg or HBeAg) not specified for the column. A digest of the protocol: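 HBV product was measured at day 5 by lysate qPCR or by supernatant HBsAg/HBeAg ELISA, in 2.2.15 cells seeded at 35,000/well and exposed to 5-fold compound dilution series (0.5% DMSO). EC50 is 50% reduction of viral product relative to untreated controls.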
Background: In qPCR the cycle at which signal appears reflects the starting amount.

A short description of data set [1]: Compound induced cellular toxicity in HepG2 cells, ATPlite 1Step. The data set is classed as cell-based. The settings on record: human, three days exposure, 50% reduction of total ATP vs no drug controls. The procedure: At day 3, post seeding cells are treated with ATPlite 1Step according to the manufacturer's instructions.

pEC50: −log10 of the molar value.

As usually defined, the pEC50 is the negative decadic logarithm of the EC50, by convention in mol/L. The low end stands for a large EC50, the high end for a small EC50. As usually defined, the CC50 is the concentration at which the toxic effect on the cells reaches its halfway point. Regarding `CC(C)(C)[C@@H]1Cn2cnc(-c3ccc(F)cc3)c2-c2cc(=O)c(C(=O)O)cn21` [Example 207, (R)-6-(tert-butyl)-1-(4-fluorophenyl)-10-oxo-5,6-dihydro-10H-imidazo[1,5-a]pyrido[2,1-c]pyrazine-9-carboxylic acid], the pEC50 in the data set on HBV in 2.2.15 cells was > 7.00. Also, the CC50 at 3 days in data set [1] was > 25 µM.

Consider `CC(C)COc1ccccc1-c1cc2n(n1)C[C@@H](C(C)(C)C)n1cc(C(=O)O)c(=O)cc1-2` [Example 80, (R)-6-(tert-butyl)-2-(2-isobutoxyphenyl)-10-oxo-5,6-dihydro-10H-pyrazolo[1,5-a]pyrido[2,2-c]pyrazine-12-carboxylic acid], for which the negative logarithm of the EC50 (pEC50) in the data set on HBV in 2.2.15 cells was > 7.00. Also, in data set [1], the CC50 at 3 days was > 25 µM.

Regarding `CC(C)(C)[C@@H]1Cn2nc(-c3cccc4ccoc34)cc2-c2cc(=O)c(C(=O)O)cn21` [Example 27, (R)-2-(benzofuran-7-yl)-6-(tert-butyl)-10-oxo-5,6-dihydro-10H-pyrazolo[1,5-a]pyrido[2,2-c]pyrazine-12-carboxylic acid], the pEC50 with HBV in 2.2.15 cells is > 7.00. For the same molecule, the CC50 at 3 days in data set [1] is > 25 µM.

On to `COc1ccc(OC)c(-c2cc3n(n2)C[C@@H](C(C)(C)C)n2cc(C(=O)O)c(=O)cc2-3)c1OC` [Example 35, (R)-6-(tert-butyl)-10-oxo-2-(2,3,6-trimethoxyphenyl)-5,6-dihydro-10H-pyrazolo[1,5-a]pyrido[2,2-c]pyrazine-12-carboxylic acid], for which the negative-log EC50 (pEC50) in the data set with HBV in 2.2.15 cells was 6.00 to 6.70. Further, in data set [1], the CC50 at 3 days is > 25 µM.

On to `CC(C)(C)[C@@H]1Cn2nc(-c3cccc4c3OCCO4)cc2-c2cc(=O)c(C(=O)O)cn21` [Example 57, (R)-6-(tert-butyl)-2-(2,3-dihydrobenzo[b][1,4]dioxin-5-yl)-10-oxo-5,6-dihydro-10H-pyrazolo[1,5-a]pyrido[2,2-c]pyrazine-12-carboxylic acid], for which the pEC50 in the data set with HBV in 2.2.15 cells was > 7.00. Moreover, the CC50 at 3 days in data set [1] was > 25 µM.

As for `C[C@@H]1Cn2nc(-c3ccccc3)c(-c3ccccc3)c2-c2cc(=O)c(C(=O)O)cn21` [Example 203, (R)-6-methyl-10-oxo-1,2-diphenyl-5,6-dihydro-10H-pyrazolo[1,5-a]pyrido[2,1-c]pyrazine-9-carboxylic acid], the pEC50 in the data set on HBV in 2.2.15 cells was > 7.00. For the same molecule, the cytotoxic concentration (CC50) at 3 days in data set [1] is > 25 µM.

For the molecule `COc1cccc(-c2cc3n(n2)C[C@@H](C(C)(C)C)n2cc(C(=O)O)c(=O)cc2-3)c1C#N` [Example 45, (R)-6-(tert-butyl)-2-(2-cyano-3-methoxyphenyl)-10-oxo-5,6-dihydro-10H-pyrazolo[1,5-a]pyrido[2,2-c]pyrazine-12-carboxylic acid], the pEC50 in the data set on HBV in 2.2.15 cells was > 7.00. The CC50 at 3 days in data set [1] was > 25 µM.

With `CC(C)(C)[C@@H]1Cn2nc(C3CC3)c(-c3ccco3)c2-c2cc(=O)c(C(=O)O)cn21` [Example 159, (R)-6-(tert-butyl)-2-cyclopropyl-1-(furan-2-yl)-10-oxo-5,6-dihydro-10H-pyrazolo[1,5-a]pyrido[2,1-c]pyrazine-9-carboxylic acid], the pEC50 in the data set with HBV in 2.2.15 cells was > 7.00. For the same molecule, the CC50 at 3 days in data set [1] is > 25 µM.

Regarding `CC(C)[C@@H]1Cn2nc(C3CC3)c(-c3cccs3)c2-c2cc(=O)c(C(=O)O)cn21` [Example 131, (R)-2-cyclopropyl-6-isopropyl-10-oxo-1-(thiophen-2-yl)-5,6-dihydro-10H-pyrazolo[1,5-a]pyrido[2,1-c]pyrazine-9-carboxylic acid], in the data set with HBV in 2.2.15 cells, the pEC50 was > 7.00. Moreover, the CC50 at 3 days in data set [1] is > 25 µM.

Turning to `CC(C)(C)[C@@H]1Cn2nc(-c3ccc(F)cc3)c(-c3ccc(F)cc3)c2-c2cc(=O)c(C(=O)O)cn21` [Example 91, (R)-6-(tert-butyl)-1,2-bis(4-fluorophenyl)-10-oxo-5,6-dihydro-10H-pyrazolo[1,5-a]pyrido[2,1-c]pyrazine-9-carboxylic acid], the pEC50 in the data set with HBV in 2.2.15 cells is > 7.00. The CC50 at 3 days in data set [1] was > 25 µM.

`COc1ccc(-c2c(C3CC3)nn3c2-c2cc(=O)c(C(=O)O)cn2[C@H](C(C)(C)C)C3)cc1` [Example 158, (R)-6-(tert-butyl)-2-cyclopropyl-1-(4-methoxyphenyl)-10-oxo-5,6-dihydro-10H-pyrazolo[1,5-a]pyrido[2,1-c]pyrazine-9-carboxylic acid]: the pEC50 in the data set on HBV in 2.2.15 cells was > 7.00. The CC50 at 3 days in data set [1] was > 25 µM.

In the case of `Cc1ncc(-c2cc3n(n2)C[C@@H](C(C)(C)C)n2cc(C(=O)O)c(=O)cc2-3)s1` [Example 19, (R)-6-(tert-butyl)-2-(2-methylthiazol-5-yl)-10-oxo-5,6-dihydro-10H-pyrazolo[1,5-a]pyrido[2,2-c]pyrazine-12-carboxylic acid], the pEC50 in the data set with HBV in 2.2.15 cells is > 7.00. Also, the CC50 at 3 days in data set [1] is > 25 µM.

As to `CC(C)Oc1ccccc1-c1cc2n(n1)C[C@@H](C(C)(C)C)n1cc(C(=O)O)c(=O)cc1-2` [Example 82, (R)-6-(tert-butyl)-2-(2-isopropoxyphenyl)-10-oxo-5,6-dihydro-10H-pyrazolo[1,5-a]pyrido[2,2-c]pyrazine-12-carboxylic acid], the pEC50 in the data set on HBV in 2.2.15 cells is > 7.00. The CC50 at 3 days in data set [1] is > 25 µM.

Regarding `CC(C)(C)[C@@H]1Cn2nc(-c3ccoc3)c(-c3ccoc3)c2-c2cc(=O)c(C(=O)O)cn21` [Example 96, (R)-6-(tert-butyl)-1,2-di(furan-3-yl)-10-oxo-5,6-dihydro-10H-pyrazolo[1,5-a]pyrido[2,1-c]pyrazine-9-carboxylic acid], the pEC50 in the data set on HBV in 2.2.15 cells was > 7.00. In addition, in data set [1], the CC50 at 3 days is > 25 µM.

Regarding `CC(C)[C@@H]1Cn2nc(-c3ccccc3)c(-c3ccccc3)c2-c2c(F)c(=O)c(C(=O)O)cn21` [Example 186, (R)-11-fluoro-6-isopropyl-10-oxo-1,2-diphenyl-5,6-dihydro-10H-pyrazolo[1,5-a]pyrido[2,1-c]pyrazine-9-carboxylic acid], the pEC50 in the data set with HBV in 2.2.15 cells was > 7.00. Also, the CC50 at 3 days in data set [1] was > 25 µM.

With `CC(C)(C)[C@@H]1Cn2nc(-c3cccc(F)c3F)cc2-c2cc(=O)c(C(=O)O)cn21` [Example 30, (R)-6-(tert-butyl)-2-(2,3-difluorophenyl)-10-oxo-5,6-dihydro-10H-pyrazolo[1,5-a]pyrido[2,2-c]pyrazine-12-carboxylic acid], the pEC50 in the data set on HBV in 2.2.15 cells is > 7.00. Also, the CC50 at 3 days in data set [1] was > 25 µM.

Turning to `CC(C)(C)[C@@H]1Cn2nc(-c3ccc(F)cc3)c(F)c2-c2cc(=O)c(C(=O)O)cn21` [Example 93, (R)-6-(tert-butyl)-1-fluoro-2-(4-fluorophenyl)-10-oxo-5,6-dihydro-10H-pyrazolo[1,5-a]pyrido[2,1-c]pyrazine-9-carboxylic acid], the pEC50 with HBV in 2.2.15 cells was > 7.00. In addition, the CC50 at 3 days in data set [1] is > 25 µM.

For `CC(C)(C)[C@@H]1Cn2nc(-c3cccc4c3OC(F)(F)O4)cc2-c2cc(=O)c(C(=O)O)cn21` [Example 21, (R)-6-(tert-butyl)-2-(2,2-difluorobenzo[d][1,3]dioxol-4-yl)-10-oxo-5,6-dihydro-10H-pyrazolo[1,5-a]pyrido[2,2-c]pyrazine-12-carboxylic acid], the negative logarithm of the EC50 (pEC50) with HBV in 2.2.15 cells was > 7.00. Moreover, the CC50 at 3 days in data set [1] is > 25 µM.

As to `COc1ccc(OC(F)(F)F)cc1-c1cc2n(n1)C[C@@H](C(C)(C)C)n1cc(C(=O)O)c(=O)cc1-2` [Example 33, (R)-6-(tert-butyl)-2-(2-methoxy-5-(trifluoromethoxy)phenyl)-10-oxo-5,6-dihydro-10H-pyrazolo[1,5-a]pyrido[2,2-c]pyrazine-12-carboxylic acid], the pEC50 in the data set with HBV in 2.2.15 cells is > 7.00. For the same molecule, the CC50 at 3 days in data set [1] is > 25 µM.

Take `CC(C)[C@@H]1Cn2nc(-c3cccc(F)c3)c(-c3cccc(F)c3)c2-c2c(F)c(=O)c(C(=O)O)cn21` [Example 188, (R)-11-fluoro-1,2-bis(3-fluorophenyl)-6-isopropyl-10-oxo-5,6-dihydro-10H-pyrazolo[1,5-a]pyrido[2,1-c]pyrazine-9-carboxylic acid]: the negative-log EC50 (pEC50) in the data set with HBV in 2.2.15 cells was > 7.00. The CC50 at 3 days in data set [1] is > 25 µM.

`Cn1cc(-c2cc3n(n2)C[C@@H](C(C)(C)C)n2cc(C(=O)O)c(=O)cc2-3)cn1` [Example 5, (R)-6-(tert-butyl)-2-(2-methyl-1H-pyrazol-4-yl)-10-oxo-5,6-dihydro-10H-pyrazolo[1,5-a]pyrido[2,2-c]pyrazine-12-carboxylic acid]: the pEC50 in the data set on HBV in 2.2.15 cells is > 7.00. Further, the half-maximal cytotoxic concentration (CC50) at 3 days in data set [1] was > 25 µM.

As for `CC(C)(C)[C@@H]1Cn2ncc(-c3ccccc3F)c2-c2cc(=O)c(C(=O)O)cn21` [Example 104, (R)-6-(tert-butyl)-1-(2-fluorophenyl)-10-oxo-5,6-dihydro-10H-pyrazolo[1,5-a]pyrido[2,1-c]pyrazine-9-carboxylic acid], the negative-log EC50 (pEC50) with HBV in 2.2.15 cells is > 7.00. The same molecule showed a cytotoxic concentration (CC50) at 3 days in data set [1] of 10 to 25 µM.

For `CCOc1c(F)cccc1-c1cc2n(n1)C[C@@H](C(C)(C)C)n1cc(C(=O)O)c(=O)cc1-2` [Example 71, (R)-6-(tert-butyl)-2-(2-ethoxy-3-fluorophenyl)-10-oxo-5,6-dihydro-10H-pyrazolo[1,5-a]pyrido[2,2-c]pyrazine-12-carboxylic acid], in the data set with HBV in 2.2.15 cells, the pEC50 is > 7.00. Further, the CC50 at 3 days in data set [1] was > 25 µM.

On to `CC(C)(C)[C@@H]1Cn2nc(-c3cccc(OC(F)(F)F)c3)cc2-c2cc(=O)c(C(=O)O)cn21` [Example 17, (R)-6-(tert-butyl)-10-oxo-2-(3-(trifluoromethoxy)phenyl)-5,6-dihydro-10H-pyrazolo[1,5-a]pyrido[2,2-c]pyrazine-12-carboxylic acid], for which the negative-log EC50 (pEC50) in the data set on HBV in 2.2.15 cells is > 7.00. In addition, the half-maximal cytotoxic concentration (CC50) at 3 days in data set [1] is > 25 µM.

As for `CC(C)(C)[C@@H]1Cn2nc(-c3ccc4c(c3F)OCO4)cc2-c2cc(=O)c(C(=O)O)cn21` [Example 55, (R)-6-(tert-butyl)-2-(4-fluorobenzo[d][1,3]dioxol-5-yl)-10-oxo-5,6-dihydro-10H-pyrazolo[1,5-a]pyrido[2,2-c]pyrazine-12-carboxylic acid], the pEC50 with HBV in 2.2.15 cells was > 7.00. For the same molecule, in data set [1], the cytotoxic concentration (CC50) at 3 days is > 25 µM.

The values are drawn from patent publication US12264159B2, “Functionalized heterocycles as antiviral agents” (Enanta Pharmaceuticals, Inc., priority 2018, dated 2025).
